In article PMC9698358, “The Discovery of Novel Ferulic Acid Derivatives Incorporating Substituted Isopropanolamine Moieties as Potential Tobacco Mosaic Virus Helicase Inhibitors” (International Journal of Molecular Sciences, 2022):

Legend:
TMV helicase [1] = target: T1, TMV helicase (Tobacco mosaic virus, UniProt Q9IBK4); test: microscale thermophoresis; format: binding
T1 construct: helicase domain of the 126/183 kDa replicase

TMV helicase [2] = target: T1, TMV helicase; test: ATPase activity, malachite green phosphate release; format: biochemical

T1 sequence (Q9IBK4 entry or part of it): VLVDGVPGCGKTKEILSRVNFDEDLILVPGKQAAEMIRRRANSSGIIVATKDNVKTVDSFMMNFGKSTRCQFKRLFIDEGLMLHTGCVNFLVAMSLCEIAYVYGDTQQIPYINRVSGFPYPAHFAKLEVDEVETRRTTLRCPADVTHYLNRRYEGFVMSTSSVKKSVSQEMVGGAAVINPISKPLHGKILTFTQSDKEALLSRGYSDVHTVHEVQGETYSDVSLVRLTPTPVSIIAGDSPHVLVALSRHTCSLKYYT

## COC(=O)/C=C/c1ccc(OCC(O)CN2CCN(Cc3ccccc3C)CC2)c(OC)c1 (stereo not shown) [A31]
TMV helicase [1]
  Kd: 13.5 µM
TMV helicase [2]
  inhibition at 200 µM: 47%

## COc1cc(/C=C/C(=O)O)ccc1O [FA, 3-methoxy-4-hydroxycinnamic acid]
TMV helicase [2]
  inhibition at 200 µM: 26.4%

## COC(=O)/C=C/c1ccc(OC[C@H](O)CN2CCOCC2)c(OC)c1 [R-A19]
TMV helicase [1]
  Kd: 5.4 µM
TMV helicase [2]
  inhibition at 200 µM: 50.6%

## COC(=O)/C=C/c1ccc(OC[C@@H](O)CN2CCOCC2)c(OC)c1 [S-A19]
TMV helicase [1]
  Kd: 22.8 µM
TMV helicase [2]
  inhibition at 200 µM: 44.5%
